Measured values from ChEMBL document CHEMBL6078640, “Trivalent oleanolic acid-glucose conjugates: Synthesis and efficacy against Influenza A virus” (Eur J Med Chem, 2024).
Active and inactive are the calls of the source. The rule behind the calls is not given here.

Legend:
[1] = system: Influenza A virus; test: Antiviral activity against Influenza A virus H1N1 infected in MDCK cells assessed as reduction in cytopathic effect at 100 uM pretreated with cells followed by viral infection and measured after 40 hrs by fluorescence based microplate reader analysis; type: functional, organism-based
[2] = system: MDCK; test: Cytotoxicity against dog MDCK cells assessed as reduction in cell viability at 100 uM incubated for 40 hrs by celltiter-glo assay; type: toxicity, cell-based, Canis lupus familiaris
[3] = system: Influenza A virus; test: Antiviral activity against Influenza A virus H1N1 infected in MDCK cells assessed as inhibition of viral growth at 100 uM relative to control; type: functional
[4] = system: Influenza A virus; test: Antiviral activity against influenza A virus A/WSN/33(H1N1) infected in MDCK cells assessed as inhibition of viral-induced cytopathic effect pretreated with cells followed by viral infection and measured after 40 hrs by fluorescence based microplate reader analysis; type: functional, organism-based
[5] = Cytotoxicity against dog MDCK cells assessed as reduction in cell viability incubated for 40 hrs by celltiter-glo assay; type: toxicity, cell-based, Canis lupus familiaris
[6] = Selectivity index, ratio of CC50 for dog MDCK cells to IC50 for influenza A virus A/WSN/33(H1N1) infected in MDCK cells; type: toxicity, cell-based; settings: read-out: Selectivity Index
[7] = system: Influenza A virus; test: Antiviral activity against Influenza A virus H1N1 (A/Guangdong maonan/6WL197/2020); type: functional, organism-based
[8] = system: Influenza B virus; test: Antiviral activity against Influenza B virus […] (B/Darwin/58/2019/Yamagata); type: functional, organism-based
[9] = system: Influenza A virus; test: Antiviral activity against Influenza A virus H5N1 (A/Indonesia/5/2005 (IBCDC-RG2)); type: functional, organism-based
[10] = system: Influenza A virus; test: Antiviral activity against influenza A virus A/WSN/33 (H1N1) in MDCK cells assessed as reduction in M2 expression preincubated with cells at 24 hrs followed by compound addition and measured at 0 to 2 hrs post infection by time of addition assay; type: functional, organism-based; settings: time 0-2 hrs
[11] = system: Influenza A virus; test: Antiviral activity against influenza A virus A/WSN/33 (H1N1) in MDCK cells assessed as reduction in NP expression preincubated with cells at 24 hrs followed by compound addition and measured at 0 to 2 hrs post infection by time of addition assay; type: functional, organism-based; settings: time 0-2 hrs
[12] = system: Influenza A virus; test: Antiviral activity against influenza A virus A/WSN/33 (H1N1) in MDCK cells assessed as reduction in M2 expression preincubated with cells at 24 hrs followed by compound addition and measured at 0 to 10 hrs post infection by time of addition assay; type: functional, organism-based; settings: time 0-10 hrs
[13] = system: Influenza A virus; test: Antiviral activity against influenza A virus A/WSN/33 (H1N1) in MDCK cells assessed as reduction in NP expression preincubated with cells at 24 hrs followed by compound addition and measured at 0 to 10 hrs post infection by time of addition assay; type: functional, organism-based; settings: time 0-10 hrs
[14] = system: Influenza A virus; test: Antiviral activity against influenza A virus A/WSN/33 (H1N1) in MDCK cells assessed as reduction in NP mRNA level preincubated with cells at 24 hrs followed by compound addition and measured at 0 to 2 hrs post infection by RT-qPCR analysis; type: functional, organism-based; settings: time 0-2 hrs
[15] = system: Influenza A virus; test: Antiviral activity against influenza A virus A/WSN/33 (H1N1) in MDCK cells assessed as reduction in M mRNA level preincubated with cells at 24 hrs followed by compound addition and measured at 0 to 2 hrs post infection by RT-qPCR analysis; type: functional, organism-based; settings: time 0-2 hrs
[16] = system: Influenza A virus; test: Antiviral activity against influenza A virus A/WSN/33 (H1N1) in MDCK cells assessed as reduction in NP mRNA level preincubated with cells at 24 hrs followed by compound addition and measured at 0 to 10 hrs post infection by RT-qPCR analysis; type: functional, organism-based; settings: time 0-10 hrs
[17] = system: Influenza A virus; test: Antiviral activity against influenza A virus A/WSN/33 (H1N1) in MDCK cells assessed as reduction in M mRNA level preincubated with cells at 24 hrs followed by compound addition and measured at 0 to 10 hrs post infection by RT-qPCR analysis; type: functional, organism-based; settings: time 0-10 hrs
[18] = system: MDCK; test: Inhibition of Hemagglutinin in Influenza A virus H1N1 assessed as inhibition of virus-induced aggregation of chicken erythrocytes pretreated with virus followed by chicken RBC addition and measured after 30 mins by Hemagglutinin inhibition assay; type: cell-based; settings: dose 0-1.94 µM
[19] = system: Influenza A virus; test: Antiviral activity against Influenza A virus A/WSN/33(H1N1) infected in female BALB/c kunming mouse assessed as improvement in body weight administered intranasally once per day for 7 days and measured daily; type: functional, organism-based; settings: dose 6.25-12.5 mg/kg/day, time 7.0 day
[20] = system: Influenza A virus; test: Antiviral activity against Influenza A virus A/WSN/33(H1N1) infected in female BALB/c kunming mouse assessed as delayed the median time of animal death at 0.125 mg/kg, administered intranasally once per day for 7 days starting from 24 hrs post-viral infection and measured daily; type: functional, organism-based; settings: time 7.0 day
[21] = system: Influenza A virus; test: Antiviral activity against Influenza A virus A/WSN/33(H1N1) infected in female BALB/c kunming mouse assessed as protection of mouse at 0.25 mg/kg, administered intranasally once per day for 7 days starting from 24 hrs post-viral infection and measured daily; type: functional, organism-based; settings: time 7.0 day
[22] = system: Influenza A virus; test: Antiviral activity against Influenza A virus A/WSN/33(H1N1) infected in female BALB/c kunming mouse assessed as reduction in lung index at 6.25 mg/kg/day, administered intranasally once per day for 7 days starting from 24 hrs post-viral infection and measured daily; type: functional; settings: time 7 day
[23] = system: Influenza A virus; test: Antiviral activity against Influenza A virus A/WSN/33(H1N1) infected in female BALB/c kunming mouse assessed as reduction in lung index at 12.5 mg/kg/day, administered intranasally once per day for 7 days starting from 24 hrs post-viral infection and measured daily; type: functional; settings: time 7 day
[24] = system: Influenza A virus; test: Antiviral activity against Influenza A virus A/WSN/33(H1N1) infected in female BALB/c kunming mouse assessed as reduction in severe pneumonia at 12.5 mg/kg/day, administered intranasally once per day for 7 days starting from 24 hrs post-viral infection and measured daily; type: functional, organism-based; settings: time 7.0 day
[25] = system: Influenza A virus; test: Antiviral activity against Influenza A virus A/WSN/33(H1N1) infected in female BALB/c kunming mouse assessed as reduction in immune cell infiltration at 12.5 mg/kg/day, administered intranasally once per day for 7 days starting from 24 hrs post-viral infection and measured daily; type: functional, organism-based; settings: time 7.0 day
[26] = Toxicity in female BALB/c kunming mouse infected with Influenza A virus A/WSN/33(H1N1) assessed as reduction in liver injury at 6.25 to 12.5 mg/kg/day, administered intranasally once per day for 7 days starting from 24 hrs post-viral infection by H and E staining based analysis; type: organism-based; settings: in vivo, inhaled_or_intranasal, 168 h, dose 6.25-12.5 mg/kg/day, time 7 day
[27] = Toxicity in female BALB/c kunming mouse infected with Influenza A virus A/WSN/33(H1N1) assessed as reduction in kidney injury at 6.25 to 12.5 mg/kg/day, administered intranasally once per day for 7 days starting from 24 hrs post-viral infection by H and E staining based analysis; type: organism-based; settings: in vivo, inhaled_or_intranasal, 168 h, dose 6.25-12.5 mg/kg/day, time 7 day

**Q.** Which Activity [1] does the source give for `CC1(C)CC[C@]2(C(=O)NCc3cn([C@@H]4O[C@H](CO)[C@@H](O)[C@H](O)[C@H]4O)nn3)CC[C@]3(C)C(=CC[C@@H]4[C@@]5(C)CC[C@H](OC(=O)NCc6cn(Cc7cc(Cn8cc(CNC(=O)O[C@H]9CC[C@]%10(C)[C@H]%11CC=C%12[C@@H]%13CC(C)(C)CC[C@]%13(C(=O)NCc%13cn([C@@H]%14O[C@H](CO)[C@@H](O)[C@H](O)[C@H]%14O)nn%13)CC[C@@]%12(C)[C@]%11(C)CC[C@H]%10C9(C)C)nn8)cc(Cn8cc(CNC(=O)O[C@H]9CC[C@]%10(C)[C@H]%11CC=C%12[C@@H]%13CC(C)(C)CC[C@]%13(C(=O)NCc%13cn([C@@H]%14O[C@H](CO)[C@@H](O)[C@H](O)[C@H]%14O)nn%13)CC[C@@]%12(C)[C@]%11(C)CC[C@H]%10C9(C)C)nn8)c7)nn6)C(C)(C)[C@@H]5CC[C@]43C)[C@@H]2C1` here?
**A.** Active

**Q.** And the Activity [2]?
**A.** Non-toxic

**Q.** And the inhibition at 100 µM [3]?
**A.** > 75%

**Q.** What about the IC50 [4] of the same molecule?
**A.** 0.47 µM

**Q.** What about the CC50 at 40 h [5] of the same molecule?
**A.** > 100 µM

**Q.** What about the selectivity ratio [6] of the same molecule?
**A.** > 213

**Q.** And the IC50 [7]?
**A.** 5.24 µM

**Q.** What about the IC50 [8] of the same molecule?
**A.** 2.39 µM

**Q.** And the Activity [9]?
**A.** inactive

**Q.** What about the Activity [10] of the same molecule?
**A.** Active; Compound Exerts Antiviral Effect At Early Stage Of Infection

**Q.** What about the Activity [11] of the same molecule?
**A.** Active; Compound Exerts Antiviral Effect At Early Stage Of Infection

**Q.** And the Activity [12]?
**A.** Active; Compound Exerts Antiviral Effect At Early Stage Of Infection

**Q.** And the Activity [13]?
**A.** Active; Compound Exerts Antiviral Effect At Early Stage Of Infection

**Q.** And the Activity [14]?
**A.** Active; Compound Exerts Antiviral Effect At Early Stage Of Infection

**Q.** And the Activity [15]?
**A.** Active; Compound Exerts Antiviral Effect At Early Stage Of Infection

**Q.** What about the Activity [16] of the same molecule?
**A.** Active; Compound Exerts Antiviral Effect At Early Stage Of Infection

**Q.** What about the Activity [17] of the same molecule?
**A.** Active; Compound Exerts Antiviral Effect At Early Stage Of Infection

**Q.** What about the inhibition [18] of the same molecule?
**A.** Dose-dependent-effect

**Q.** What about the Activity [19] of the same molecule?
**A.** Dose-dependent-effect

**Q.** What about the Activity [20] of the same molecule?
**A.** Active

**Q.** What about the Activity [21] of the same molecule?
**A.** Active; Protection In 2 Out Of 4 Mouse Was Observed

**Q.** What about the Activity_index [22] of the same molecule?
**A.** 1.7

**Q.** What about the Activity_index [23] of the same molecule?
**A.** 1.4

**Q.** And the Activity [24]?
**A.** Active

**Q.** What about the Activity [25] of the same molecule?
**A.** Active

**Q.** And the Activity [26]?
**A.** Non-toxic

**Q.** And the Activity [27]?
**A.** Non-toxic
